# In ChEMBL document CHEMBL1201862, “PubChem BioAssay data set” (2004):
#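 48-hour exposure; five concentrations; linearly interpolated endpoints. At the GI50, growth is halved.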 Activity calls are given as the source filed them. Rule as the data show it: active = GI50 up to about 1.1 µM and inactive = higher.
# Assays:
# Assay in all cases: NCI-60 cell line screen, 48 h
# SK-MEL-2 = test system: SK-MEL-2
# SNB-19 = test system: SNB-19
# Hs-578T = test system: Hs-578T
# SN12C = test system: SN12C
# OVCAR-5 = test system: OVCAR-5
# TK-10 = test system: TK-10
# LOX IMVI = test system: LOX IMVI
# A549 = test system: A549
# MCF7 = test system: MCF7
# HCC 2998 = test system: HCC 2998
# SW-620 = test system: SW-620
# HCT-116 = test system: HCT-116
# HT-29 = test system: HT-29
# 786-0 = test system: 786-0
# NCI/ADR-RES = test system: NCI/ADR-RES
# UACC-62 = test system: UACC-62
# MOLT-4 = test system: MOLT-4
# SK-MEL-5 = test system: SK-MEL-5
# ACHN = test system: ACHN
# KM12 = test system: KM12
# CAKI-1 = test system: CAKI-1
# NCI-H23 = test system: NCI-H23
# HCT-15 = test system: HCT-15
# RPMI-8226 = test system: RPMI-8226
# BT-549 = test system: BT-549
# NCI-H460 = test system: NCI-H460
# NCI-H522 = test system: NCI-H522
# IGROV-1 = test system: IGROV-1
# UACC-257 = test system: UACC-257
# OVCAR-3 = test system: OVCAR-3
# OVCAR-4 = test system: OVCAR-4
# HOP-62 = test system: HOP-62
# M14 = test system: M14
# SF-539 = test system: SF-539
# HOP-92 = test system: HOP-92
# OVCAR-8 = test system: OVCAR-8
# SF-268 = test system: SF-268
# MDA-MB-231 = test system: MDA-MB-231
# DU-145 = test system: DU-145
# MDA-MB-435 = test system: MDA-MB-435
# PC-3 = test system: PC-3
# NCI-H226 = test system: NCI-H226
# COLO 205 = test system: COLO 205
# SF-295 = test system: SF-295
# UO-31 = test system: UO-31
# T47D = test system: T47D
# MDA-N = test system: MDA-N
# K562 = test system: K562
# HL-60 = test system: HL-60
# U-251 = test system: U-251
# EKVX = test system: EKVX
# SK-OV-3 = test system: SK-OV-3
# CCRF-CEM = test system: CCRF-CEM
# RXF 393 = test system: RXF 393
# SR = test system: SR
# SNB-75 = test system: SNB-75
# A498 = test system: A498
# SK-MEL-28 = test system: SK-MEL-28
# Malme-3M = test system: Malme-3M
compound,measurement,setting,value
CCOP(=O)(OCC)/C(=C/NC(=S)c1ccncc1)C(=O)OC,GI50,SK-MEL-2,> 100 µM (inactive)
same,GI50,SNB-19,> 100 µM (inactive)
same,GI50,Hs-578T,> 100 µM (inactive)
same,GI50,SN12C,> 100 µM (inactive)
same,GI50,OVCAR-5,> 100 µM (inactive)
same,GI50,TK-10,> 100 µM (inactive)
same,GI50,LOX IMVI,> 100 µM (inactive)
same,GI50,A549,> 100 µM (inactive)
same,GI50,MCF7,> 100 µM (inactive)
same,GI50,HCC 2998,> 100 µM (inactive)
same,GI50,SW-620,> 100 µM (inactive)
same,GI50,HCT-116,> 100 µM (inactive)
same,GI50,HT-29,> 100 µM (inactive)
same,GI50,786-0,> 100 µM (inactive)
same,GI50,NCI/ADR-RES,> 100 µM (inactive)
same,GI50,UACC-62,> 100 µM (inactive)
same,GI50,MOLT-4,> 100 µM (inactive)
same,GI50,SK-MEL-5,> 100 µM (inactive)
same,GI50,ACHN,> 100 µM (inactive)
same,GI50,KM12,> 100 µM (inactive)
same,GI50,CAKI-1,> 100 µM (inactive)
same,GI50,NCI-H23,> 100 µM (inactive)
same,GI50,HCT-15,> 100 µM
same,GI50,RPMI-8226,> 100 µM (inactive)
same,GI50,BT-549,> 100 µM (inactive)
same,GI50,NCI-H460,> 100 µM (inactive)
same,GI50,NCI-H522,> 100 µM (inactive)
same,GI50,IGROV-1,> 100 µM (inactive)
same,GI50,UACC-257,> 100 µM (inactive)
same,GI50,OVCAR-3,> 100 µM (inactive)
same,GI50,OVCAR-4,> 100 µM (inactive)
same,GI50,HOP-62,> 100 µM (inactive)
same,GI50,M14,> 100 µM (inactive)
same,GI50,SF-539,> 100 µM (inactive)
same,GI50,HOP-92,> 100 µM (inactive)
same,GI50,OVCAR-8,> 100 µM (inactive)
same,GI50,SF-268,> 100 µM (inactive)
same,GI50,MDA-MB-231,> 100 µM (inactive)
same,GI50,DU-145,> 100 µM (inactive)
same,GI50,MDA-MB-435,> 100 µM (inactive)
same,GI50,PC-3,> 100 µM (inactive)
same,GI50,NCI-H226,> 100 µM (inactive)
same,GI50,COLO 205,> 100 µM (inactive)
same,GI50,SF-295,> 100 µM (inactive)
same,GI50,UO-31,> 100 µM (inactive)
same,GI50,T47D,> 100 µM (inactive)
same,GI50,MDA-N,> 100 µM (inactive)
same,GI50,K562,> 100 µM (inactive)
same,GI50,HL-60,53.5 µM (inactive)
same,GI50,U-251,> 100 µM (inactive)
same,GI50,EKVX,> 100 µM (inactive)
same,GI50,SK-OV-3,> 100 µM (inactive)
same,GI50,CCRF-CEM,20.6 µM (inactive)
same,GI50,RXF 393,> 100 µM (inactive)
same,GI50,SR,4.48 µM (inactive)
COc1cc(C2C(Cl)C(=O)N2c2ccc(Br)cc2)cc(I)c1O (centres undefined),GI50,SK-MEL-2,65.8 µM (inactive)
same,GI50,SNB-19,73.5 µM (inactive)
same,GI50,Hs-578T,59.6 µM (inactive)
same,GI50,SN12C,68.5 µM (inactive)
same,GI50,OVCAR-5,87.7 µM (inactive)
same,GI50,TK-10,90.8 µM (inactive)
same,GI50,LOX IMVI,6.04 µM (inactive)
same,GI50,A549,42.4 µM (inactive)
same,GI50,MCF7,87.9 µM (inactive)
same,GI50,SW-620,> 100 µM (inactive)
same,GI50,HCT-116,40.3 µM (inactive)
same,GI50,HT-29,87.1 µM (inactive)
same,GI50,786-0,> 100 µM (inactive)
same,GI50,NCI/ADR-RES,33.5 µM (inactive)
same,GI50,UACC-62,25.5 µM (inactive)
same,GI50,MOLT-4,27.5 µM (inactive)
same,GI50,SK-MEL-5,43.2 µM (inactive)
same,GI50,ACHN,33.5 µM (inactive)
same,GI50,KM12,37.3 µM (inactive)
same,GI50,CAKI-1,47.9 µM (inactive)
same,GI50,NCI-H23,52.8 µM (inactive)
same,GI50,HCT-15,23.8 µM
same,GI50,RPMI-8226,33.1 µM (inactive)
same,GI50,BT-549,45.1 µM (inactive)
same,GI50,NCI-H460,58.3 µM (inactive)
same,GI50,NCI-H522,18.7 µM (inactive)
same,GI50,SNB-75,37.8 µM (inactive)
same,GI50,IGROV-1,1.54 µM (inactive)
same,GI50,A498,> 100 µM (inactive)
same,GI50,UACC-257,57 µM (inactive)
same,GI50,OVCAR-3,45.3 µM (inactive)
same,GI50,OVCAR-4,70.5 µM (inactive)
same,GI50,HOP-62,37.4 µM (inactive)
same,GI50,M14,33 µM (inactive)
same,GI50,SF-539,> 100 µM (inactive)
same,GI50,OVCAR-8,> 100 µM (inactive)
same,GI50,SF-268,89.1 µM (inactive)
same,GI50,MDA-MB-231,18.9 µM (inactive)
same,GI50,DU-145,> 100 µM (inactive)
same,GI50,MDA-MB-435,47.5 µM (inactive)
same,GI50,PC-3,> 100 µM (inactive)
same,GI50,COLO 205,> 100 µM (inactive)
same,GI50,SF-295,35.4 µM (inactive)
same,GI50,UO-31,31.1 µM (inactive)
same,GI50,T47D,23.8 µM (inactive)
same,GI50,MDA-N,36.6 µM (inactive)
same,GI50,K562,7.21 µM (inactive)
same,GI50,HL-60,34 µM (inactive)
same,GI50,U-251,> 100 µM (inactive)
same,GI50,EKVX,20.7 µM (inactive)
same,GI50,SK-OV-3,92.9 µM (inactive)
same,GI50,CCRF-CEM,26.4 µM (inactive)
same,GI50,SR,29.2 µM (inactive)
O=C1CCN2C(=N1)Sc1ccccc12,GI50,SK-MEL-2,> 100 µM (inactive)
same,GI50,SNB-19,> 100 µM (inactive)
same,GI50,Hs-578T,> 100 µM (inactive)
same,GI50,SN12C,> 100 µM (inactive)
same,GI50,OVCAR-5,> 100 µM (inactive)
same,GI50,TK-10,> 100 µM (inactive)
same,GI50,LOX IMVI,> 100 µM (inactive)
same,GI50,A549,> 100 µM (inactive)
same,GI50,MCF7,> 100 µM (inactive)
same,GI50,SW-620,> 100 µM (inactive)
same,GI50,HCT-116,> 100 µM (inactive)
same,GI50,SK-MEL-28,> 100 µM (inactive)
same,GI50,HT-29,> 100 µM (inactive)
same,GI50,786-0,> 100 µM (inactive)
same,GI50,NCI/ADR-RES,> 100 µM (inactive)
same,GI50,UACC-62,> 100 µM (inactive)
same,GI50,MOLT-4,> 100 µM (inactive)
same,GI50,SK-MEL-5,> 100 µM (inactive)
same,GI50,ACHN,> 100 µM (inactive)
same,GI50,KM12,> 100 µM (inactive)
same,GI50,CAKI-1,> 100 µM (inactive)
same,GI50,NCI-H23,> 100 µM (inactive)
same,GI50,HCT-15,> 100 µM
same,GI50,RPMI-8226,> 100 µM (inactive)
same,GI50,BT-549,> 100 µM (inactive)
same,GI50,NCI-H460,> 100 µM (inactive)
same,GI50,NCI-H522,> 100 µM (inactive)
same,GI50,SNB-75,> 100 µM (inactive)
same,GI50,IGROV-1,> 100 µM (inactive)
same,GI50,UACC-257,> 100 µM (inactive)
same,GI50,OVCAR-3,> 100 µM (inactive)
same,GI50,OVCAR-4,> 100 µM (inactive)
same,GI50,HOP-62,> 100 µM (inactive)
same,GI50,M14,> 100 µM (inactive)
same,GI50,SF-539,> 100 µM (inactive)
same,GI50,HOP-92,> 100 µM (inactive)
same,GI50,Malme-3M,> 100 µM (inactive)
same,GI50,OVCAR-8,> 100 µM (inactive)
same,GI50,SF-268,> 100 µM (inactive)
same,GI50,MDA-MB-231,> 100 µM (inactive)
same,GI50,DU-145,> 100 µM (inactive)
same,GI50,MDA-MB-435,> 100 µM (inactive)
same,GI50,PC-3,> 100 µM (inactive)
same,GI50,NCI-H226,> 100 µM (inactive)
same,GI50,COLO 205,> 100 µM (inactive)
same,GI50,SF-295,> 100 µM (inactive)
same,GI50,T47D,> 100 µM (inactive)
same,GI50,MDA-N,> 100 µM (inactive)
same,GI50,K562,> 100 µM (inactive)
same,GI50,HL-60,> 100 µM (inactive)
same,GI50,U-251,> 100 µM (inactive)
same,GI50,EKVX,> 100 µM (inactive)
same,GI50,SK-OV-3,> 100 µM (inactive)
same,GI50,CCRF-CEM,> 100 µM (inactive)
same,GI50,RXF 393,> 100 µM (inactive)
same,GI50,SR,> 100 µM (inactive)
